Experimental data as given in patent publication US10968178B2, “IP6K inhibitors” (TAKEDA PHARMACEUTICAL COMPANY LIMITED, priority 2017, dated 2021).

Columns and labels:
Assay type in all cases: biochemical
[1] = biological target: T1, human IP6K2 (Homo sapiens, UniProt Q9UHH9); assay: IP6K enzyme inhibitory assay (ADP-Glo Kinase Assay), human IP6K2; details: compound concentration 0.1 μM; read-out: ADP-Glo method inhibitory rate (%) human IP6K2
T1 construct: human IP6K2 (1-426) gene; GST; made in house; host or cells: Sf-9 insect cells
T1 sequence (Q9UHH9 1-426): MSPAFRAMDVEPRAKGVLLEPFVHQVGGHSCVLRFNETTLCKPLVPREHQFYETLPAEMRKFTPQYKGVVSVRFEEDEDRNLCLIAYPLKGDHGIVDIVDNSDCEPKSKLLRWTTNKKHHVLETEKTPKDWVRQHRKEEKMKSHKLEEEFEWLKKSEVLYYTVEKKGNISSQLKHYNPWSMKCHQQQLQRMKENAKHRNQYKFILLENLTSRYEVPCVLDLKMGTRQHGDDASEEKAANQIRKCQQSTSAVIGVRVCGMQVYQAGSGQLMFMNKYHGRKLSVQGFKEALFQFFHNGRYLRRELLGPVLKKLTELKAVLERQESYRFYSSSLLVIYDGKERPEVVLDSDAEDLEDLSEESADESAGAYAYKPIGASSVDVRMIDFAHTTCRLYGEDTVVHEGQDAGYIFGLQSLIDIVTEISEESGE
Method: (§1) IP6K Enzyme Inhibitory Assay
(§2) Human IP6K3 enzyme was prepared by transducing human IP6K3 (1-410) gene into BL21 (DE3) Escherichia coli and purifying by Ni-NTA (nickel-nitrilotriacetic acid) affinity column. […] The enzymes were used after preservation at −70° C. The IP6K enzyme inhibitory activity of the test compound was measured by the following experiment method and using ADP-Glo™ Kinase Assay (manufactured by Promega). A test compound diluted with an assay buffer (20 mM HEPES (pH 7.5), 6 mM MgCl2, 0.01% Tween-20, 1 mM DTT) was first added by 2 μL to a 384 well plate. […] The IP6K enzyme solution diluted with the assay buffer was added by 2 μL to start the enzyme reaction. Incubation was performed at room temperature for a given time (120 min for rat IP6K3 alone, 60 min for others). After incubation at room temperature, ADP-Glo solution prepared according to the protocol of Promega was added by 3 μL to the 384 well plate and reacted at room temperature for 30 min. Thereafter, Kinase-Detection solution was added by 6 μL to the 384 well plate and reacted at room temperature for 60 min. After the reaction, the luminescence intensity was measured by a plate reader Envision (manufactured by PerkinElmer).

[2] = biological target: T2, human IP6K3 (Homo sapiens, UniProt Q96PC2); assay: IP6K enzyme inhibitory assay (ADP-Glo Kinase Assay), human IP6K3; details: compound concentration 0.1 μM; read-out: ADP-Glo method inhibitory rate (%) human IP6K3
T2 construct: human IP6K3 (1-410) gene; made in house; host or cells: BL21 (DE3) Escherichia coli
T2 sequence (Q96PC2 1-410): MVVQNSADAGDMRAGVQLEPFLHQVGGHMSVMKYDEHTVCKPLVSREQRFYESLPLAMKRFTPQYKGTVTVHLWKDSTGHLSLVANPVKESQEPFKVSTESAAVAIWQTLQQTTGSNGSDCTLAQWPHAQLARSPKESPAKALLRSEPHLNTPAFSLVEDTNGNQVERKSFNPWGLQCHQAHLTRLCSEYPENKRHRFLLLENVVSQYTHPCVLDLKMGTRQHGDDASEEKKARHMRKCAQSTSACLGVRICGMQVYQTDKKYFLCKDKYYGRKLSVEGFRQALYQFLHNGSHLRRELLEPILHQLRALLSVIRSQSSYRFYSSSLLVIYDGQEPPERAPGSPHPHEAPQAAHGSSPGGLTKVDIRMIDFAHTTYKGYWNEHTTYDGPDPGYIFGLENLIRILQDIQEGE
Method: as §1, §2

[3] = biological target: T3, human IP6K1 (Homo sapiens, UniProt Q92551); assay: IP6K enzyme inhibitory assay (ADP-Glo Kinase Assay), human IP6K1; details: compound concentration 0.1 μM; read-out: ADP-Glo method inhibitory rate (%) human IP6K1
T3 construct: human IP6K1 (1-441) gene; GST; made in house; host or cells: Sf-9 insect cells
Method: as §1, §2

T3 sequence (Q92551 whole entry): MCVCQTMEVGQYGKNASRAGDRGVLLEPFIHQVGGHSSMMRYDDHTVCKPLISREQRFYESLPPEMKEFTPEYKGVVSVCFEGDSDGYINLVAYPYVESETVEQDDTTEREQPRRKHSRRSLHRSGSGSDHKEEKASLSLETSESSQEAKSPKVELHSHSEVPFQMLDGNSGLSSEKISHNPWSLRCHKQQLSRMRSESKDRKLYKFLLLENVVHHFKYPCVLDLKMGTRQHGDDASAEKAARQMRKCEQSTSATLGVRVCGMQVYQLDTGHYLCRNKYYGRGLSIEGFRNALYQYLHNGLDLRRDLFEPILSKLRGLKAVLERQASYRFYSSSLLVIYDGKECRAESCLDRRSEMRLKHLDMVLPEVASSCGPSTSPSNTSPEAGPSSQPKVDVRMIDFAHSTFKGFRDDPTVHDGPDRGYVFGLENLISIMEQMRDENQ

Row | SMILES | inhibition at 0.1 µM [1] | inhibition at 0.1 µM [2] | inhibition at 0.1 µM [3]
1 | O=C(O)c1ccc2c(c1)[C@]1(CC[C@@H](Oc3ccc(F)c(Cl)c3)CC1)C(=O)N2 [Example 67, (1r,4r)-4-(3-chloro-4-fluorophenoxy)-2′-oxo-1′,2′-dihydrospiro[cyclohexane-1,3′-indole]-5′-carboxylic acid] | 98% | 97% | 93%
2 | COc1ccc(O[C@H]2CC[C@@]3(CC2)C(=O)Nc2ccc(C(=O)O)cc23)c(C#N)c1 [Example 70, (1r,4r)-4-(2-cyano-4-methoxyphenoxy)-2′-oxo-1′,2′-dihydrospiro[cyclohexane-1,3′-indole]-5′-carboxylic acid] | 99% | 99% | 99%
3 | O=C(O)c1ccc2c(c1)[C@]1(CC[C@@H](Oc3ccc(C(F)(F)F)cc3)CC1)C(=O)N2 [Example 10, (1r,4r)-2-oxo-4-(4-(trifluoromethyl)phenoxy)-1′,2′-dihydrospiro[cyclohexane-1,3′-indole]-5′-carboxylic acid] | 100% | 102% | 98%
4 | O=C(O)c1ccc2c(c1)[C@]1(CC[C@@H](Oc3ccc(Cl)cn3)CC1)C(=O)N2 [Example 11, (1r,4r)-4-((5-chloropyridin-2-yl)oxy)-2′-oxo-1′,2′-dihydrospiro[cyclohexane-1,3′-indole]-5′-carboxylic acid] | 97% | 102% | 100%
5 | Cc1cc(F)ccc1O[C@H]1CC[C@@]2(CC1)C(=O)Nc1ccc(C(=O)O)cc12 [Example 50, (1r,4r)-4-(4-fluoro-2-methylphenoxy)-2′-oxo-1′,2′-dihydrospiro[cyclohexane-1,3′-indole]-5′-carboxylic acid] | 100% | 96% | 101%
6 | O=C(O)c1ccc2c(c1)[C@]1(CC[C@@H](Oc3ccc(F)c(F)c3)CC1)C(=O)N2 [Example 55, (1r,4r)-4-(3,4-difluorophenoxy)-2′-oxo-1′,2′-dihydrospiro[cyclohexane-1,3′-indole]-5′-carboxylic acid] | 95% | 99% | 96%
7 | O=C(O)c1ccc2c(c1)[C@]1(CC[C@@H](Oc3cc(F)ccc3Cl)CC1)C(=O)N2 [Example 65, (1r,4r)-4-(2-chloro-5-fluorophenoxy)-2′-oxo-1′,2′-dihydrospiro[cyclohexane-1,3′-indole]-5′-carboxylic acid] | 95% | 97% | 93%
8 | O=C(O)c1ccc2c(c1)[C@]1(CC[C@@H](Oc3cccc(C(F)(F)F)c3)CC1)C(=O)N2 [Example 75, (1r,4r)-2′-oxo-4-(3-(trifluoromethyl)phenoxy)-1′,2′-dihydrospiro[cyclohexane-1,3′-indole]-5′-carboxylic acid] | 94% | 89% | 89%
9 | O=C(O)c1ccc2c(c1)[C@]1(CC[C@H](Oc3ccc(Cl)cc3)CC1)C(=O)N2 [Example 108, (1s,4s)-4-(4-chlorophenoxy)-2′-oxo-1′,2′-dihydrospiro[cyclohexane-1,3′-indole]-5′-carboxylic acid] | 101% | 99% | 97%
10 | Cc1ccc(O[C@H]2CC[C@@]3(CC2)C(=O)Nc2ccc(C(=O)O)cc23)c(C)n1 [Example 35, (1r,4r)-4-((2,6-dimethylpyridin-3-yl)oxy)-2′-oxo-1′,2′-dihydrospiro[cyclohexane-1,3′-indole]-5′-carboxylic acid] | 96% | 98% | 82%

Now from value to molecule:

Row | inhibition at 0.1 µM [1] | inhibition at 0.1 µM [2] | inhibition at 0.1 µM [3] | SMILES
11 | 45% | 70% | 40% | O=C(O)c1ccc2c(c1)[C@]1(CC[C@@H](Oc3ccccn3)CC1)C(=O)N2 [Example 19, (1r,4r)-2′-oxo-4-[pyridin-2-yloxy)-1′,2′-dihydrospiro[cyclohexane-1,3′-indole]-5′-carboxylic acid]
12 | 89% | 98% | 99% | O=C(O)c1ccc2c(n1)[C@]1(CC[C@@H](Oc3ncc(C4CC4)cc3Cl)CC1)C(=O)N2 [Example 16, (1r,4r)-4-((3-chloro-5-cyclopropylpyridin-2-yl)oxy)-2′-oxo-1′,2′-dihydrospiro[cyclohexane-1,3′-pyrrolo[3,2-b]pyridine]-5′-carboxylic acid]
13 | 76% | 91% | 63% | Cc1ccc(O[C@H]2CC[C@@]3(CC2)C(=O)Nc2ccc(C(=O)O)cc23)cn1 [Example 34, (1r,4r)-4-((6-methylpyridin-3-yl)oxy)-2′-oxo-1′,2′-dihydrospiro[cyclohexane-1,3′-indole]-5′-carboxylic acid]
14 | 93% | 94% | 80% | O=C(O)c1ccc2c(c1)[C@]1(CC[C@@H](Oc3cc(F)cc(Cl)c3)CC1)C(=O)N2 [Example 64, (1r,4r)-4-(3-chloro-5-fluorophenoxy)-2′-oxo-1′,2′-dihydrospiro[cyclohexane-1,3′-indole]-5′-carboxylic acid]
15 | 92% | 92% | 86% | O=C(O)c1ccc2c(c1)[C@]1(CC[C@@H](Oc3ncccc3Cl)CC1)C(=O)N2 [Example 24, (1r,4r)-4-((3-chloropyridin-2-yl)oxy)-2′-oxo-1′,2′-dihydrospiro[cyclohexane-1,3′-indole]-5′-carboxylic acid]
16 | 96% | 97% | 96% | Cc1cccc(O[C@H]2CC[C@@]3(CC2)C(=O)Nc2ccc(C(=O)O)cc23)c1F [Example 53, (1r,4r)-4-(2-fluoro-3-methylphenoxy)-2′-oxo-1′,2′-dihydrospiro[cyclohexane-1,3′-indole]-5′-carboxylic acid]
17 | 91% | 96% | 79% | Cc1cccnc1O[C@H]1CC[C@@]2(CC1)C(=O)Nc1ccc(C(=O)O)cc12 [Example 21, (1r,4r)-4-((3-methylpyridin-2-yl)oxy)-2′-oxo-1′,2′-dihydrospiro[cyclohexane-1,3′-indole]-5′-carboxylic acid]
18 | 92% | 95% | 72% | Cc1cc(C)c(O[C@H]2CC[C@@]3(CC2)C(=O)Nc2ccc(C(=O)O)cc23)cn1 [Example 36, (1r,4r)-4-((4,6-dimethylpyridin-3-yl)oxy)-2′-oxo-1′,2′-dihydrospiro[cyclohexane-1,3′-indole]-5′-carboxylic acid]
19 | 50% | 80% | 55% | O=C(O)c1ccc2c(n1)[C@]1(CC[C@H](Oc3c(F)cc(Cl)cc3F)CC1)C(=O)N2 [Example 86, (1s,4s)-4-(4-chloro-2,6-difluorophenoxy)-2′-oxo-1′,2′-dihydrospiro[cyclohexane-1,3′-pyrrolo[3,2-b]pyridine]-5′-carboxylic acid]
20 | 87% | 96% | 69% | N#Cc1c(F)cccc1O[C@H]1CC[C@@]2(CC1)C(=O)Nc1ccc(C(=O)O)cc12 [Example 63, (1r,4r)-4-(2-cyano-3-fluorophenoxy)-2′-oxo-1′,2′-dihydrospiro[cyclohexane-1,3′-indole]-5′-carboxylic acid]
